Test results: patent publication US20100210597A1, “C21-Deoxy Ansamycin Derivatives as Antitumor Agents” (priority 2007, published 2010)

Test system: DU145
Assay: Monolayer proliferation assay (modified propidium iodide), DU145
Type: cell-based, human
Details: average of 2 experiments
Procedure: In vitro evaluation of compounds for anticancer activity in a panel of human tumour cell lines in a monolayer proliferation assay was carried out at the Oncotest Testing Facility, Institute for Experimental Oncology, Oncotest GmbH, Freiburg.
The Oncotest cell lines are established from human tumor xenografts as described by Roth et al., (1999). The origin of the donor xenografts is described by Fiebig et al., (1999). Other cell lines are either obtained from the NCl (DU145, MCF-7) or purchased from DSMZ, Braunschweig, Germany.
All cell lines, unless otherwise specified, are grown at 37° C. in a humidified atmosphere (95% air, 5% CO2) in a ‘ready-mix’ medium containing RPMI 1640 medium, 10% fetal calf serum, and 0.1 mg/mL gentamicin (PAA, Cölbe, Germany).
A modified propidium iodide assay was used to assess the effects of the test compound(s) on the growth of six human tumour cell lines (Dengler et al., (1995)).
Briefly, cells are harvested from exponential phase cultures by trypsinization, counted and plated in 96 well flat-bottomed microtitre plates at a cell density dependent on the cell line (5-10.000 viable cells/well). After 24 h recovery to allow the cells to resume exponential growth, 0.010 mL of culture medium (6 control wells per plate) or culture medium containing macbecin were added to the wells. Each concentration is plated in triplicate. Compounds were applied in two concentrations (0.001 mM and 0.01 mM). Following 4 days of continuous exposure, cell culture medium with or without test compound was replaced by 0.2 mL of an aqueous propidium iodide (P1) solution (7 mg/L). To measure the proportion of living cells, cells were permeabilized by freezing the plates. After thawing the plates, fluorescence was measured using the Cytofluor 4000 microplate reader (excitation 530 nm, emission 620 nm), giving a direct relationship to the total number of viable cells.
Growth inhibition is expressed as treated/control×100 (% T/C).
In vitro evaluation of the test compound, 20, for anticancer activity in a panel of human tumour cell lines in a monolayer proliferation assay was carried out as described in the general methods using a modified propidium iodide assay.

**Q.** Which “Test/Control (%) at drug concentration (μg/mL)” value (from here on “Test/Control (%)”) (DU145, 0.01 μg/mL) does the source give for `CO[C@H]1C[C@H](C)Cc2cc(cc(OP(=O)(O)O)c2)NC(=O)/C(C)=C/CC[C@H](C)[C@@H](OC(N)=O)/C(C)=C/[C@H](C)[C@H]1O` [Compound 20, 4,5-dihydro-11-O-demethyl-15-demethoxy-18,21-didehydro-21-deoxomacbecin-18-phosphate] here?
**A.** 99%

**Q.** And the “Test/Control (%)” value (DU145, 0.1 μg/mL)?
**A.** 53%

**Q.** What about the “Test/Control (%)” value (DU145, 1 μg/mL) of the same compound?
**A.** 8%

**Q.** What about the “Test/Control (%)” value (DU145, 10 μg/mL) of the same compound?
**A.** 9%

**Q.** And the “Test/Control (%)” value (DU145, 100 μg/mL)?
**A.** 3%
